The text below walks through data of patent publication US20250134899A1, “COMBINATION THERAPIES OF WDR5 INHIBITORS AND PD-1 INHIBITORS” (HUYABIO International, LLC, priority 2023, published 2025).

This test relates to GL261-Luc cells (syngeneic orthotopic gliomas). Nature of the test: GL261-luc intracranial orthotopic syngeneic brain (glioma) model, survival. The class given is in vivo, C57BL/6J mice. Here is the method:
Female C57BL/6J mice (Beijing VR Laboratory Animal Co., LTD; 6 to 8 weeks old, approximately 18-22 g) were used for intracranial […] orthotopic glioma experiment. To establish syngeneic orthotopic gliomas, 200,000 GL261-Luc cells were stereotactically injected in a 3-μL volume of PBS mixed with 20% Matrigel into the left striatum over 1 minute, 3 mm deep from the cortical surface. Tumor burden was monitored by bioluminescence signal with IVIS imaging by injection 1.5 mg of luciferin per animal prior to imaging. On day 7 after implantation the mice were randomly allocated into treatment arms based on tumor radiance, so that the average tumor radiance in each group was approximately 8.50E+06 photon/sec (Day 0). Animals were treated for 28 days with HBI-2375 (80 mg/kg QD PO), Anti-PD-1 (RMP1-14) antibody (10 mg/kg BIW IP) and/or whole body radiation therapy (2 Gy/day×5 days) in monotherapy, doublet or triplet therapy and as described in the protocol.
The tumor take rate was 100%. Each arm had 10 mice in survival experiments. Study was terminated on Day 85.

On to `Cc1c(F)c(N)cc(C(=O)Nc2cc(-n3cc(C(=O)N4CCN(C)CC4)nn3)c(F)cc2N2C[C@@H](C)N(C)[C@@H](C)C2)c1Cl` [HBI-2375, 5-amino-2-chloro-4-fluoro-N-(4-fluoro-5-(4-(4-methylpiperazine-1-carbonyl)-1H-1,2,3-triazol-1-yl)-2-((3S,5R)-3,4,5-trimethylpiperazin-1-yl)phenyl)-3-methylbenzamide], for which, under “Day 85, same dosing”, the “% Survival at Day 85” value was determined as 10%. Further, under “GL261-Luc intracranial, 10 mice per arm, treated 28 days, HBI-2375 80 mg/kg QD PO, anti-PD-1 10 mg/kg BIW IP, radiation 2 Gy/day x 5 days, study terminated Day 85”, the “Median Survival” value is on record as 17.5 days. Also, the “survival (in words)” value (in combination with Anti-PD-1 and Radiation, FIG. 1 legend) is listed as “increases survival”. Further, for the setting “surviving mice / mice per arm at Day 85, same dosing”, the “Survival at Day 85” value is on record as 1/10.
